From ChEMBL document CHEMBL1128626, “The synthesis and biological activity of enediyne minor groove binding hybrids” (Bioorg Med Chem Lett, 1995)

Experiments:
HCT-116 = experiment: Cytotoxicity against HCT116 human colon tumor cell line; assay type: functional, cell-based
Nucleic Acid [1] = experiment: Concentration of drug which induced cleavage of 50% of PM2 supercoiled DNA in the presence of beta-mercaptoethanol; assay type: functional
Nucleic Acid [2] = experiment: Concentration of drug which induced cleavage of 50% of PM2 supercoiled DNA in the absence of beta-mercaptoethanol; assay type: functional

`Cn1cc(NC(=O)Cc2ccc(CO[C@H]3C#C/C=C\C#C[C@]4(O)CCC=C3C4=O)cc2)cc1C(=O)Cc1cc(C(=O)NCCC(=N)N)n(C)c1` gave an IC50 (HCT-116) of 640 µM, a Cleavage (Nucleic Acid [1]) of less than 1 µM and a Cleavage (Nucleic Acid [2]) of 10 µM.

Compound `C=C(OC)C(=O)Nc1cc(OC)c(OC)cc1C(=O)O[C@H]1C[C@H](O[C@@H]2C(=O)C(NC(=O)OC)=C3/C(=C\CSSSC)[C@]2(O)C#C/C=C\C#C[C@@H]3O[C@@H]2O[C@H](C)[C@@H](NO[C@H]3C[C@H](O)[C@H](SC)[C@@H](C)O3)[C@H](O)[C@H]2O[C@H]2C[C@H](OC)[C@@H](NC(C)C)CO2)O[C@@H](C)[C@H]1O` [ESPERAMICIN A1] has an IC50 (HCT-116) of 1e-06 µM, a Cleavage (Nucleic Acid [1]) of less than 1 µM and a Cleavage (Nucleic Acid [2]) of 10 µM.

Compound `O=C1C2=CCC[C@@]1(O)C#C/C=C\C#C[C@@H]2O` has a Cleavage (Nucleic Acid [1]) of 100 µM and a Cleavage (Nucleic Acid [2]) of 1000 µM.

Compound `Cn1cc(NC(=O)c2cc(NC(=O)Cc3ccc(COCO[C@@]45C#C/C=C\C#C[C@H](O)C(=CCC4)C5=O)cc3)cn2C)cc1C(=O)NCCC(=N)N` has an IC50 (HCT-116) of 7.4 µM, a Cleavage (Nucleic Acid [1]) of 10 µM and a Cleavage (Nucleic Acid [2]) of 100 µM.
